Measurements published in patent US20180318200A1, “MOUTHWASH PRODUCTS AND METHODS” (COLGATE-PALMOLIVE COMPANY, priority 2015, published 2018).
Like-named read-outs stand apart in the source and are kept apart here.

Tests used:
[1] = Nanoindentation (nanohardness and Young's modulus) of acid-etched enamel blocks; design: species or system bovine; conditions: hydrolyzed wheat protein 0.5 weight %, fluoride 500 ppm; three cycles of 30 minutes treatment + 22 to 24 hours AS
Description: Enamel blocks are prepared as described in Example 1. Acid-etching is achieved by placing the enamel blocks in 1% citric acid solution (pH 3.8) for 15 minutes. The nanohardness and Young's modulus at 500 nm depth are measured prior to and after etching. Etched enamel blocks are incubated with a solution of hydrolyzed wheat protein (GLUADIN W20), at a concentration of 0.5 weight %, for 30 minutes (2 ml solution/block), followed by an incubation with AS solution as described in Example 1, for 22 to 24 hours. The hydrolyzed wheat protein and AS incubation steps are repeated two additional times, after which the enamel blocks are rinsed with DI water and air-dried. The nanohardness and Young's modulus of the treated enamel blocks are measured at 500 nm depth to assess the enamel repair effects of the hydrolyzed wheat protein. A solution of 500 ppm fluoride is used as a positive control for the experiment. The results are illustrated in Tables 2 and 3.

[2] = Microhardness (Knoop) remineralization assay on etched enamel blocks; design: species or system bovine; conditions: hydrolysate filtrate with CPC 0.1% and fluoride (NaF) as stated in the label
Description: Enamel blocks are prepared as described in Example 1. […] Blocks with a Knoop hardness (KH) of at least 300 are selected. The blocks are etched by immersing in 30% phosphoric acid for 15 seconds. The KH on the left and right sides of the blocks are measured. Subsequently, the right side of the blocks are covered with tape prior to treating the blocks with 20 mg/ml solution of hydrolyzed wheat protein (Gluadin W20 from BASF) or hydrolyzed rice protein (GLUADIN R from BASF), each neutralized as described in example 1, for two terms of 30 minutes. (The tape on the right hand side of the blocks prevents exposure of this side to the protein solution and serves as an internal control). The blocks are washed twice with DI water @ 5 minutes, 500 PRM between the two treatments and after the second treatment. Subsequently, the tape is removed and the blocks are incubated in AS solution (0.2 mM MgCl2, 1 mM CaCl2.H2O, 20 mM HEPES buffer, 4 mM KH2PO4, 16 mM KCl, 4.5 mM NH4Cl, 300 ppm NaF, 0.05 wt. % NaN3, at pH 7 (adjusted with 1M NaOH)) for 7 days. After rinsing the enamel blocks with DI water and air-drying the rinsed blocks, microhardness is measured again. Surface microhardness regain (SMHL, Remin %) as a percent is calculated as […]

[3] = surface microhardness loss, 4 day cycling, four 10 minute treatments per day
Description: The selected enamel blocks are then the enamel blocks are pre-treated and subjected to 4 day cycling as described below, using DI water (negative control), 500 ppm F (positive control) and 0.2% wheat hydrolysate (Gluadin W20)+500 ppm F (test material) prepared as described in the previous example. The microhardness of the enamel blocks is measured again as final (MHfinal).
Each enamel block is sanitized in ethanol twice then washed in sterile DI water three times. Then each enamel block is pre-incubated in saliva supernatant at 4° C. overnight to form pellicle on the enamel surface.
Day Two to Five—Dentifrice treatment, demineralization and remineralization: Unstimulated whole saliva is collected from donors, who refrain from eating and oral hygiene in the morning. The saliva is pooled and centrifuged at 8000 rpm for 10 minutes. […] The sediment is washed once using sterile DI water and centrifuged at 8000 rpm for 10 minutes. The water supernatant is removed. The washed sediment is then diluted in the salivary supernatant TSB mixture to an OD (610 nm)=0.5. […]
Surface microhardness loss (SMHL, Demin %) as a percent was calculated as (1−(Microhardnessfinal/Microhardnesssound))*100.

[4] = evaluation with weight adjustment; two 30 minute ex vivo treatments, 7 days in situ in retainer
Description: A treatment phase is completed ex vivo. Initial microhardness (MH) measurements are taken on sound, bovine enamel blocks (MHBaseline). The blocks are then etched with 30% phosphoric acid until there was a 40% change in the microhardness reading from Baseline. The microhardness is recorded as etched (Equation 1, MHEtched). Each etched enamel block is then immersed in a 2 ml solution of pre-treated 0.2% wheat hydrolysate (Gluadin W20)+500 ppm F prepared as described above, or a 2 ml solution of 500 ppm F, for 30 minutes. After 30 minutes, the blocks are washed twice with DI water at 500 RPM for 5 minutes, and then dried with a paper towel. This treatment cycle is repeated. The blocks are then secured within the designated location on a retainer for placement in the oral cavity of a subject. Six enamel blocks are placed in each retainer. Pre-punched holes on the retainer allow saliva fluid to contact etched enamel and to provide minerals for remineralization. […] The treated and control enamel blocks are randomized on the left or right side of the retainer. The retainers are then stored in a refrigerator until Day 1 of the study.
Twenty-six subjects are included in this randomized, blinded study. […] After 7 days, the enamel blocks are taken out of the appliance to take the final microhardness measurements (MHRemineralized) Demineralization and remineralization are calculated as follows: […]

F [Fluoride, NaF]
Nanohardness Repair at 500 nm depth (%) [1]: 31.12%
Young's Modulus Repair at 500 nm depth (%) [1]: 48.50%
Remineralization % ([2]; listed as Buffer + 250 ppm fluoride): 11.73%
Remineralization % ([2]; listed as Buffer + 500 ppm fluoride): 15.87%
Demineralization percentage ([3]; 0.2% sucrose): 8.36%
Demineralization percentage ([3]; 0.4% sucrose): 19.99%
% Remin [4]: 27.6%
